Data reported in publication PMC11748363, “Antimicrobial and Antiproliferative Properties of 2‐Phenyl‐N‐(Pyridin‐2‐yl)acetamides” (Chemical Biology & Drug Design, 2025).
Converted amounts (≈) assume the structure as drawn. Like-named read-outs stand apart in the source and are kept apart here.

Experiments:
[1] = system: Aspergillus flavus CCM 8363; assay: Antifungal microdilution broth MIC, AFla
[2] = system: HepG2 cell line; assay: Cytotoxicity CellTiter 96, HepG2; format: cell-based, human; conditions: Homo sapiens, HepG2, 24 h, 24 h incubation; ^c compound precipitated in the testing medium; ^d over the limit of tested concentrations
[3] = system: Escherichia coli CCM 3954, ATCC 25922; assay: Antibacterial microdilution broth MIC, EC; format: cell-based
[4] = system: Pseudomonas aeruginosa CCM 3955, ATCC 27853; assay: Antibacterial microdilution broth MIC, PA; format: cell-based
[5] = system: Candida krusei CCM 8271, ATCC 6258; assay: Antifungal microdilution broth MIC, CK; conditions: Pichia kudriavzevii
[6] = system: Aspergillus fumigatus ATCC 204305; assay: Antifungal microdilution broth MIC, AF
[7] = system: Staphylococcus aureus subsp. aureus CCM 4750, ATCC 43300 (MRSA); assay: Antibacterial microdilution broth MIC, MRSA; format: cell-based; conditions: Staphylococcus aureus
[8] = system: Acinetobacter baumannii DSM 30007, ATCC 19606; assay: Antibacterial microdilution broth MIC, ACI; format: cell-based
[9] = system: Mycobacterium tuberculosis H37Ra; assay: Antimycobacterial microdilution broth MIC (resazurin), Mtb H37Ra; format: cell-based; conditions: Mycobacterium tuberculosis, H37RA, read-out: MIC Mtb H37Ra
[10] = system: Enterococcus faecalis CCM 4224, ATCC 29212; assay: Antibacterial microdilution broth MIC, EF; format: cell-based
[11] = system: Staphylococcus aureus CCM 4223, ATCC 29213; assay: Antibacterial microdilution broth MIC, SA; format: cell-based; conditions: Staphylococcus aureus
[12] = system: Trichophyton interdigitale CCM 8377, ATCC 9533; assay: Antifungal microdilution broth MIC, TI; conditions: Trichophyton interdigitale
[13] = system: Lichtheimia corymbifera CCM 8077; assay: Antifungal microdilution broth MIC, LC
[14] = system: Candida albicans CCM 8320, ATCC 24433; assay: Antifungal microdilution broth MIC, CA
[15] = system: Klebsiella pneumoniae CCM 4415, ATCC 10031; assay: Antibacterial microdilution broth MIC, KP
[16] = system: Candida tropicalis CCM 8264, ATCC 750; assay: Antifungal microdilution broth MIC, CT
[17] = system: Staphylococcus epidermidis CCM 4418, ATCC 12228; assay: Antibacterial microdilution broth MIC, SE; format: cell-based
[18] = system: Mycolicibacterium smegmatis DSM 43465; assay: Antimycobacterial microdilution broth MIC (resazurin), M. smegmatis; format: cell-based; conditions: DSM43465, read-out: MIC M. smegmatis
[19] = system: Candida parapsilosis CCM 8260, ATCC 22019; assay: Antifungal microdilution broth MIC, CP; conditions: Lodderomyces parapsilosis
[20] = system: Mycolicibacterium aurum DSM 43999; assay: Antimycobacterial microdilution broth MIC (resazurin), M. aurum; format: cell-based; conditions: DSM43999, read-out: MIC M. aurum
[21] = CCM8363, 24 h, read-out: MIC AFla 24h
[22] = CCM8363, 48 h, read-out: MIC AFla 48h
[23] = ATCC204305, 24 h, read-out: MIC AF 24h
[24] = ATCC204305, 48 h, read-out: MIC AF 48h
[25] = CCM8077, 24 h, read-out: MIC LC 24h
[26] = CCM8077, 48 h, read-out: MIC LC 48h

Structure (SMILES)	MIC [1, 21]	MIC [1, 22]	IC50 [2]	MIC ([3]; 24 h, read-out: MIC EC 24h)	MIC ([3]; 48 h, read-out: MIC EC 48h)	MIC ([4]; 24 h, read-out: MIC PA 24h)	MIC ([4]; 48 h, read-out: MIC PA 48h)	MIC ([5]; 24 h, read-out: MIC CK 24h)	MIC ([5]; 48 h, read-out: MIC CK 48h)	MIC [6, 23]	MIC [6, 24]	MIC ([7]; 24 h, read-out: MIC MRSA 24h)	MIC ([7]; 48 h, read-out: MIC MRSA 48h)	MIC ([8]; 24 h, read-out: MIC ACI 24h)	MIC ([8]; 48 h, read-out: MIC ACI 48h)	MIC ([9]; Calculated from MIC (μg/mL))	MIC [9]	MIC ([10]; 24 h, read-out: MIC EF 24h)	MIC ([10]; 48 h, read-out: MIC EF 48h)	MIC ([11]; 24 h, read-out: MIC SA 24h)	further results
COc1cccc(CC(=O)Nc2cccc(Cl)n2)c1 [Compound 9, 2-(3-methoxyphenyl)-N-(6-chloropyridin-2-yl)acetamide]	500 µM (≈ 138 µg/mL)	> 500 µM	638 µM	> 500 µM	> 500 µM	> 500 µM	> 500 µM	500 µM (≈ 138 µg/mL)	500 µM (≈ 138 µg/mL)	500 µM (≈ 138 µg/mL)	> 500 µM	> 500 µM	> 500 µM	> 500 µM	> 500 µM	900 µM	250 µg/mL	> 500 µM	> 500 µM	> 500 µM	MIC ([11]; 48 h, read-out: MIC SA 48h): > 500 µM; MIC ([12]; 72 h, read-out: MIC TI 72h): 500 µM (≈ 138 µg/mL); MIC ([12]; 120 h, read-out: MIC TI 120h): > 500 µM; MIC [13, 25]: 500 µM (≈ 138 µg/mL); MIC [13, 26]: > 500 µM; MIC ([14]; 24 h, read-out: MIC CA 24h): 500 µM (≈ 138 µg/mL); MIC ([14]; 48 h, read-out: MIC CA 48h): 500 µM (≈ 138 µg/mL); MIC KP 24h [15]: > 500 µM; MIC KP 48h [15]: > 500 µM; MIC ([16]; 24 h, read-out: MIC CT 24h): 500 µM (≈ 138 µg/mL); MIC ([16]; 48 h, read-out: MIC CT 48h): 500 µM (≈ 138 µg/mL); MIC ([17]; 24 h, read-out: MIC SE 24h): > 500 µM; MIC ([17]; 48 h, read-out: MIC SE 48h): > 500 µM; MIC [18]: 125 µg/mL (≈ 452 µM); MIC ([19]; 24 h, read-out: MIC CP 24h): 500 µM (≈ 138 µg/mL); MIC ([19]; 48 h, read-out: MIC CP 48h): 500 µM (≈ 138 µg/mL); MIC [20]: > 500 µg/mL
COc1ccc(CC(=O)Nc2ccccn2)cc1 [Compound 10, 2-(4-methoxyphenyl)-N-(pyridin-2-yl)acetamide]	> 500 µM	> 500 µM	> 1000 µM	> 500 µM	> 500 µM	> 500 µM	> 500 µM	500 µM (≈ 121 µg/mL)	500 µM (≈ 121 µg/mL)	> 500 µM	> 500 µM	> 500 µM	> 500 µM	> 500 µM	> 500 µM	516 µM	125 µg/mL	> 500 µM	> 500 µM	> 500 µM	MIC ([11]; 48 h, read-out: MIC SA 48h): > 500 µM; MIC ([12]; 72 h, read-out: MIC TI 72h): 500 µM (≈ 121 µg/mL); MIC ([12]; 120 h, read-out: MIC TI 120h): 500 µM (≈ 121 µg/mL); MIC [13, 25]: > 500 µM; MIC [13, 26]: > 500 µM; MIC ([14]; 24 h, read-out: MIC CA 24h): > 500 µM; MIC ([14]; 48 h, read-out: MIC CA 48h): > 500 µM; MIC KP 24h [15]: > 500 µM; MIC KP 48h [15]: > 500 µM; MIC ([16]; 24 h, read-out: MIC CT 24h): > 500 µM; MIC ([16]; 48 h, read-out: MIC CT 48h): > 500 µM; MIC ([17]; 24 h, read-out: MIC SE 24h): 500 µM (≈ 121 µg/mL); MIC ([17]; 48 h, read-out: MIC SE 48h): 500 µM (≈ 121 µg/mL); MIC [18]: 62.5 µg/mL (≈ 258 µM); MIC ([19]; 24 h, read-out: MIC CP 24h): > 500 µM; MIC ([19]; 48 h, read-out: MIC CP 48h): > 500 µM; MIC [20]: 250 µg/mL (≈ 1030 µM)
COc1ccc(CC(=O)Nc2ccc(Cl)cn2)cc1 [Compound 11, 2-(4-methoxyphenyl)-N-(5-chloropyridin-2-yl)acetamide]	> 500 µM	> 500 µM	399 µM	> 500 µM	> 500 µM	> 500 µM	> 500 µM	> 500 µM	> 500 µM	> 500 µM	> 500 µM	> 500 µM	> 500 µM	> 500 µM	> 500 µM	> 1800 µM	> 500 µg/mL	> 500 µM	> 500 µM	250 µM (≈ 69.2 µg/mL)	MIC ([11]; 48 h, read-out: MIC SA 48h): 500 µM (≈ 138 µg/mL); MIC ([12]; 72 h, read-out: MIC TI 72h): > 500 µM; MIC ([12]; 120 h, read-out: MIC TI 120h): > 500 µM; MIC [13, 25]: > 500 µM; MIC [13, 26]: > 500 µM; MIC ([14]; 24 h, read-out: MIC CA 24h): > 500 µM; MIC ([14]; 48 h, read-out: MIC CA 48h): > 500 µM; MIC KP 24h [15]: > 500 µM; MIC KP 48h [15]: > 500 µM; MIC ([16]; 24 h, read-out: MIC CT 24h): > 500 µM; MIC ([16]; 48 h, read-out: MIC CT 48h): > 500 µM; MIC ([17]; 24 h, read-out: MIC SE 24h): > 500 µM; MIC ([17]; 48 h, read-out: MIC SE 48h): > 500 µM; MIC [18]: > 500 µg/mL; MIC ([19]; 24 h, read-out: MIC CP 24h): > 500 µM; MIC ([19]; 48 h, read-out: MIC CP 48h): > 500 µM; MIC [20]: > 500 µg/mL
O=C(Cc1ccccc1Cl)Nc1ccccn1 [Compound 13, 2-(2-chlorophenyl)-N-(pyridin-2-yl)acetamide]	> 500 µM	> 500 µM	755 µM	> 500 µM	> 500 µM	> 500 µM	> 500 µM	> 500 µM	> 500 µM	> 500 µM	> 500 µM	> 500 µM	> 500 µM	> 500 µM	> 500 µM	253 µM	62.5 µg/mL	> 500 µM	> 500 µM	> 500 µM	MIC ([11]; 48 h, read-out: MIC SA 48h): > 500 µM; MIC ([12]; 72 h, read-out: MIC TI 72h): 500 µM (≈ 123 µg/mL); MIC ([12]; 120 h, read-out: MIC TI 120h): 500 µM (≈ 123 µg/mL); MIC [13, 25]: > 500 µM; MIC [13, 26]: > 500 µM; MIC ([14]; 24 h, read-out: MIC CA 24h): > 500 µM; MIC ([14]; 48 h, read-out: MIC CA 48h): > 500 µM; MIC KP 24h [15]: > 500 µM; MIC KP 48h [15]: > 500 µM; MIC ([16]; 24 h, read-out: MIC CT 24h): > 500 µM; MIC ([16]; 48 h, read-out: MIC CT 48h): > 500 µM; MIC ([17]; 24 h, read-out: MIC SE 24h): 500 µM (≈ 123 µg/mL); MIC ([17]; 48 h, read-out: MIC SE 48h): 500 µM (≈ 123 µg/mL); MIC [18]: > 500 µg/mL; MIC ([19]; 24 h, read-out: MIC CP 24h): > 500 µM; MIC ([19]; 48 h, read-out: MIC CP 48h): > 500 µM; MIC [20]: 250 µg/mL (≈ 1010 µM)
